The text below walks through data of the SangsterLogP compilation.

Structures are written as SMILES.

This data set is described as follows: method code SF-AS, from DOI: 10.1002/jps.2600820804.
As to `Oc1c(Br)cccc1Br`, the logP (commonly a log measure of how a compound divides between an organic and an aqueous phase) is 3.36.
In turn, `COc1cccc(OC(C)=O)c1` showed a logP of 1.61.
Then `COC(=O)c1c(F)cccc1F`, with 1.96; and `CSc1ccccc1C(N)=O`, with 0.71; and `CCc1cccc(CC)c1OC(C)=O`, with 3.4.
To `Oc1c(F)cccc1F` belongs 1.96.
To `COC(=O)c1ccccc1F` belongs 1.82; to `COC(=O)c1ccccc1I`, 2.74; to `COC(=O)c1ccc(C)cc1`, 2.7.
In turn, `N#Cc1ccccc1C(N)=O` displayed a logP of 0.
Then `CCc1cccc(OC(C)=O)c1`, with 2.45.
Turning to `COC(=O)c1ccc([N+](=O)[O-])cc1`, the logP stood at 1.94.
`COC(=O)c1c(Cl)cccc1[N+](=O)[O-]` displayed a logP of 2.21.
As to `O=C(O)c1c(Cl)cccc1[N+](=O)[O-]`, the logP was 1.56.
Then `COC(=O)c1ccccc1OC`, with 2.04; and `COC(=O)c1cccc(Cl)c1`, with 2.85; and `Cc1cccc(Cl)c1C(=O)O`, with 2.31.
To `CCc1cccc(CC)c1O` belongs 3.03; to `CC(=O)Oc1c(C)cccc1C`, 2.32; to `O=C(O)c1c(F)cccc1F`, 1.59.
To `Cc1cccc(Cl)c1O` belongs 2.8; to `COC(=O)c1cccc([N+](=O)[O-])c1`, 1.89.
In turn, `CC(=O)Oc1c(Cl)cccc1Cl` returned a logP of 2.94.
To `O=C(O)c1c(F)cccc1Cl` belongs 2.11; to `COC(=O)c1cccc(C)c1`, 2.77; to `COC(=O)c1c(C)cccc1C`, 2.55.
For `COC(=O)c1ccccc1[N+](=O)[O-]`, the logP came out at 1.66.
To `COC(=O)c1ccc(F)cc1` belongs 2.28.
Then `Cc1cccc(C)c1C(=O)O`, with 2.21; and `COC(=O)c1ccc(Br)cc1`, with 2.95.
To `CCOc1cccc(OC(C)=O)c1` belongs 2.08; to `NC(=O)c1ccccc1[N+](=O)[O-]`, -0.12; to `COC(=O)c1c(Cl)cccc1Cl`, 2.79.
Consider `COC(=O)c1c(F)cccc1Cl`, for which the logP stood at 2.42.
As for `O=C(O)c1c(Br)cccc1Br`, the logP was found to be 3.58.
